Structures can show the parent of a compound that is named as a salt. Where two headings read alike, the source gives them in different places.
What was measured:
[1] = Solubility of mefloquine hydrochloride in buffer solutions and water for injection; type: physicochemical; conditions: for solubility at 24 h: thermodynamic from solid
Description: These suspensions were sonicated for 1 h and stirred for 24 h at 24 °C and protected from the light. Aliquots were drawn from these suspensions and filtered through a Pall Life Science (Cortland, NY, USA) 0.45 µm filter with a Versapore acrylic copolymer membrane before quantification. The pH of these suspensions was checked before filtration.
(§1) Quantification of mefloquine was performed using a Shimadzu® Nexera® high-performance liquid chromatography system (Kyoto, Japan). One microliter of samples was eluted on a 150 mm × 2.1 mm 1.7 µm octadodecyl Acquity® column (Waters, Milford, CT, USA) at 40 °C using an isocratic ammonia buffer(120 mM, pH 10):acetonitrile:methanol (40:40:20, v/v/v) mobile phase at a 1 mL/min flow rate. The samples were diluted to 1/10th with the mobile phase before injection. Quantification was performed at 283 nm with daily made calibration curves. This method was linear for concentrations ranging from 10 to 5000 mg/L. The limit of quantification was estimated at […] and the repeatability and intermediate fidelity were good (coefficient of variation < 5%) for concentrations ranging from 50 to 5000 mg/L.

[2] = tested on: p-Gp; conditions: cited from earlier work
[3] = tested on: caco-2; set-up: method as in PMID 27045516; conditions: cited from earlier work
[4] = Photostability study (ICH), HPLC content; type: physicochemical; conditions: 168 days; for change in mefloquine content: 25 °C, 60% RH, 7500 Lux and 1.1 W/m^2; for color change: light exposure
Description: The solutions were stored in type 1 glass vials (n = 3 for each solution) sealed with a rubber septum. […] Photostability studies were conducted using the Binder KBF P240 climatic chamber (Tuttligen, Germany), equipped with UVA and visible illumination sources set at 7500 Lux and 1.1 W/m^2. The chamber was maintained at a temperature of 25 ± 2 °C and a relative humidity of 60 ± 5% during the 6-months study.
The method was adapted using pharmacopeia recommendations for utilization with the Phenomenex® Kinetex® 2.6 µm, 150 × 2.1 mm column (Torrance, CA, USA), featuring the same octadecyl stationary phase with a smaller particle size. By employing this column, the flow rate was optimized at 0.4 mL/min.

[5] = piperidine's basicity; cited from earlier work
[6] = hydrochloride salt, cited from earlier work
[7] = Phase solubility studies with cyclodextrins (Higuchi and Connors), complexation efficiency (Loftsson); type: physicochemical; conditions: phosphate buffer; for complexation efficiency (CE), range over the media: citrate buffer, WFI
Description: Cyclodextrins solutions (from 26 mM to 264 mM) were prepared within sodium citrate (50 mM, pH 3) and sodium phosphate (80 mM, pH 2.7) buffer solutions and WFI. […] Aliquots were drawn from these suspensions and filtered through a Pall Life Science (Cortland, NY, USA) 0.45 µm filter with a Versapore acrylic copolymer membrane before quantification. The pH of these suspensions was checked before filtration.
as §1
Complexation efficiencies (CE) were determined from the phase solubility studies using the Loftsson method. CE = (D/CD)/(CD) = Slope/(1 − Slope) where (D/CD) is the concentration of dissolved complex; (CD) is the concentration of dissolved free CD, and Slope is the slope of the phase-solubility profile.

[8] = 19F NMR titration, association constant by 1:1 isotherm fit; type: physicochemical; conditions: D2O, 300 K, total 5 mM
Description: The stoichiometry of the complex was determined using Job’s method. […] The total molar concentration and the total volume were kept constant at 5 mM and 500 µL, respectively, and the molar ratio of each component was varied from 0 to 1. Corresponding ^19F NMR spectra were recorded. The observation of chemical shifts varying in a linear fashion with the concentrations of bound species was obtained and affords the corresponding Job plots as described elsewhere.
^19F NMR Titrations: the same experimental data set of Job plot titrations was used. The association constants were obtained by fitting a 1:1 isotherm according to the programs available at http://app.supramolecular.org/bindfit/ (accessed on 19 October 2023).

Q: With `OC(c1cc(C(F)(F)F)nc2c(C(F)(F)F)cccc12)C1CCCCN1` (stereo not drawn) [mefloquine, mefloquine hydrochloride] as the compound, how does the solubility at 24 h ([1]; aqueous buffer, citrate buffer, pH 2.7, 24 °C) read?
A: 640 µg/mL

Q: What about the solubility at 24 h ([1]; aqueous buffer, phosphate buffer, pH 2.6, 24 °C) of the same compound?
A: 4810 µg/mL

Q: What about the solubility at 24 h ([1]; aqueous buffer, phosphate buffer, pH 6.5, 24 °C) of the same compound?
A: 780 µg/mL

Q: What about the “change in solubility, citrate buffer compared to phosphate buffer” value ([1]; same pH value) of the same compound?
A: eight-fold decrease

Q: What about the “solubility compared with previously reported” value ([1]; versus ref 4) of the same compound?
A: two-fold higher

Q: What about the solubility at 24 h ([1]; water for injection (purified water), purified water, final pH 4.6, 24 °C) of the same compound?
A: 4120 µg/mL

Q: And the p-Gp inhibition [2]?
A: moderate

Q: What about the permeability [3] of the same compound?
A: around 9 × 10^−6 cm/s

Q: What about the “change in mefloquine content” value ([4]; 10 mg/mL in 200 mM RAMEB solution) of the same compound?
A: No substantial change

Q: And the “change in mefloquine content” value ([4]; 10 mg/mL in acetonitrile:water (50:50))?
A: No substantial change

Q: And the color change ([4]; RAMEB solution)?
A: No color change

Q: What about the color change ([4]; acetonitrile:water (50:50) solution) of the same compound?
A: No color change

Q: And the “additional peaks (degradation products) in chromatograms” value ([4]; both solutions)?
A: did not reveal any additional peak appearances

Q: And the pKa [5]?
A: 8.6

Q: And the solubility ([6]; acetate buffer, pH 4.5, 37 °C)?
A: 1950 µg/mL

Q: And the solubility ([6]; water, pH 6.5, 37 °C)?
A: 1806 µg/mL

Q: With `CC(O)COC[C@H]1O[C@@H]2O[C@H]3[C@H](O)[C@@H](O)[C@@H](O[C@H]4[C@H](O)[C@@H](O)[C@@H](O[C@H]5[C@H](O)[C@@H](O)[C@@H](O[C@H]6[C@H](O)[C@@H](O)[C@@H](O[C@H]7[C@H](O)[C@@H](O)[C@@H](O[C@H]8[C@H](O)[C@@H](O)[C@@H](O[C@H]1[C@H](O)[C@H]2O)O[C@@H]8COCC(C)O)O[C@@H]7COCC(C)O)O[C@@H]6COCC(C)O)O[C@@H]5COCC(C)O)O[C@@H]4COCC(C)O)O[C@@H]3COCC(C)O` (stereo partly drawn) [HP-β-CD, hydroxypropyl-β-cyclodextrin] as the compound, how does the “complexation efficiency (CE), range over the media” value [7] read?
A: 0.1–0.13

Q: And the “average association constant (K1:1)” value [8]?
A: 140.5 M⁻¹

Q: For “randomly methylated β-cyclodextrin [RAMEB]”, which “complexation efficiency (CE), range over the media” value [7] is on record?
A: 0.31–0.38

Q: What about the “equivalents of cyclodextrin to achieve target concentration of 26.5 mM (10 mg/mL) mefloquine” value [7] of the same compound?
A: approximately two

Q: What about the “average association constant (K1:1)” value [8] of the same compound?
A: 333.4 M⁻¹

— PMC10747339 (Pharmaceutics, 2023)
